From patent EP0284202A1, “Substituted hydantoin compounds” (THE WELLCOME FOUNDATION LIMITED, priority 1987, dated 1988)

Columns and labels:
[1] = target: T1, PGD₂ receptor on the human platelet (Homo sapiens, UniProt Q13258); assay: Inhibition of ADP-induced aggregation in washed human platelets: antagonism of PGD₂ and compound A, Schild analysis; format: cell-based
T1 construct: endogenous in cells; host or cells: washed human platelets
T1 sequence (Q13258 1-359): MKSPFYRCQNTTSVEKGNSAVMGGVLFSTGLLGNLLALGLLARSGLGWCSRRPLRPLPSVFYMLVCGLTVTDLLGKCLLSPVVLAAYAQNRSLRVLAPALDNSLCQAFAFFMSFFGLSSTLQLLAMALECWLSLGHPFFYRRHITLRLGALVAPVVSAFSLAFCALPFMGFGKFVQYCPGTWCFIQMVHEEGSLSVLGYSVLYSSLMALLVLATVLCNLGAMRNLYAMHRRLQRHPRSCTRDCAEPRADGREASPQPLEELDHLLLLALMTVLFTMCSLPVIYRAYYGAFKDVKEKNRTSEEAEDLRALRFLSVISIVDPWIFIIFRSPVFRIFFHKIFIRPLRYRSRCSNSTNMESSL
Method: Washed platelet suspensions were prepared according to a modified version of the method of Vargas et al (Prostaglandins (1982) 23, 929). The suspension was then stored at 4°C for 2 hours and, before use, the following additions were made: Ca⁺⁺ʼ […], indomethacin, 5mcg ml⁻¹; and fibrinogen, 400 mcg ml⁻¹. Aggregation responses were measured using 0.5ml aliquots of the suspension maintained at 37°C and stirred with a metal bar at 900 r.p.m. in 300 BD-S Payton dual channel aggregometers and recorded on Gould BS 272 pen recorders.
Inhibition of platelet aggregation by PGD₂ and compound A were studied as follows. The prostaglandin receptor agonists were incubated in the platelet suspension for 6 minutes prior to adding ADP (5 × 10⁻⁵M). The reproducibility of the ADP-induced aggregation response was checked at intervals throughout the experiment. Antagonists were added 2 minutes before the agonist. Responses were expressed as percent inhibitions of the standard ADP-induced aggregation.
(§1) Measurement of antagonist affinity (pKB) was by Schild analysis.

[2] = tested on: rabbit jugular vein; assay: Rabbit jugular vein relaxation: antagonism of PGD₂ and compound A; settings: potency compared with the antagonism in platelet aggregation
Method: Vascular smooth muscle relaxation in response to PGD₂ and compound A was measured as changes in isometric force. Isolated ring segments of rabbit jugular vein suspended in Kreb's buffer, gassed with 95% O₂/5% CO₂ and maintained at 37°C, were treated with: indomethacin, 1 µg ml⁻¹, and the stable thromboxane receptor antagonist BM13177 (Patscheke et al, Biomed. Biochem. Acta (1984) 43, 5321), 30µM. The experiments followed a paired curve design.
Initially, the jugular vein ring segments were subjected to a force of 0.75g, then allowed to stabilize for a period of 60 minutes during which time the preparations were washed three times. Subsequently histamine (10⁻⁶M) was added to produce tone. After establishing a stable contraction, relaxation/concentration effect curves were obtained using prostaglandin receptor agonists. Responses were expressed as per cent relaxations of the histamine-induced force. The preparations were then washed thoroughly and allowed to re-stabilise. The antagonists were then incubated for 60 minutes prior to constriction with histamine (10⁻⁶M), followed by a second determination of the prostaglandin agonist concentration effect curve.
as §1

[3] = tested on: prostaglandin receptors other than DP; assay: Actions at other prostaglandin receptors (selectivity); settings: actions not observed up to this multiple

## O=C(O)CCCCCCC1C(=O)N(Cc2ccccc2)C(=O)N1NCC(O)C1CCCCC1 (centres unmarked) [Example 3, 3-Benzyl-5-(6-carboxylhexyl)-1-(2-hydroxy-2-cyclohexylethylamino) hydantoin]
[1]; antagonist affinity by Schild analysis, shifts of anti-aggregatory concentration effect curves for PGD₂ and compound A, human washed platelets
  Kb: 550 pM
[1]; anti-aggregatory concentration effect curves for PGD₂ and compound A, human washed platelets
  Schild plot slope: unity
[1]; human washed platelet assay, agonists PGD₂ and compound A
  behaviour at the PGD₂ receptor on the human platelet: simple competitive antagonist
[2]
  antagonism of the relaxation effects of PGD₂ and compound A: antagonised with similar potencies
[3]
  concentrations without actions at prostaglandin receptors other than DP, relative to that required for DP receptor affinity: > 1000 ×
